Measured values as given in patent publication US7566462B2, “Stable tablet formulation” (BioMarin Pharmaceutical Inc., priority 2004, dated 2009).

Key:
[1] = Solid-state stability and hygroscopicity of polymorph B; format: physicochemical
[2] = room temperature; Berneggar and Blau 2002; cited from earlier work

For `C[C@H](O)[C@H](O)[C@H]1CNc2nc(N)[nH]c(=O)c2N1.Cl.Cl` [polymorph B, (6R)-5,6,7,8-tetrahydrobiopterin dihydrochloride], the hygroscopicity [1] was “slightly hygroscopic”, the thermodynamic stability [1] was “highest thermodynamic stability above about 20 °C” and the “behaviour at high humidity” value ([1]; percent relative humidity approaches 80%) was “appears to take up much more water, loses its crystalline form, and becomes labile to oxidation”. The “stability of the anhydrous polymorph” value ([1]; room temperature, atmospheric oxygen, normal humidity) was “stable at room temperature to atmospheric oxygen and normal humidity”.

For `C[C@H](O)[C@H](O)[C@H]1CNc2nc(N)[nH]c(=O)c2N1` [BH4, Tetrahydrobiopterin], the shelf-life [2] is given as less than 8 h.
